Counter-ions that a name gives are not always drawn.
Tests used:
[1] = system: A431 cells (human epidermoid carcinoma); assay: In vitro tumor cell proliferation assay (Cell Titer-Glo luminescent cell viability), A431; format: cell-based; settings: A-431, 72 h, 72 hours of drug exposure, ATP luminescence readout, read-out: IC50, anti-proliferative activity (inhibition of cell proliferation)
Outline: (§1)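 Seeding density 2.5×10^3 cells/well; 72 h drug exposure at 37° C; endpoint CellTiter-Glo luminescence, reported as IC50.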

[2] = system: BT474 (human breast carcinoma); assay: In vitro tumor cell proliferation assay (Cell Titer-Glo luminescent cell viability), BT474; format: cell-based; settings: BT-474, 72 h, BT474 cells, 72 hours of drug exposure, ATP luminescence readout, read-out: IC50, anti-proliferative activity (inhibition of cell proliferation)
Outline: as §1

IC50 [1] [µM] | IC50 [2] [µM] | SMILES
≤ 50 | ≤ 1 | COCCN1CCN(C[C@@H](O)Cn2cc3c(n2)CCc2c-3sc3ncnc(Nc4ccc(OCc5cccc(F)c5)c(Cl)c4)c23)CC1 [Example 133, (2R)-1-[6-({3-chloro-4-[(3-fluorobenzyl)oxy]phenyl}amino)-4,5-dihydro-2H-pyrimido[5′,4′:4,5]thieno[2,3-e]indazol-2-yl]-3-[4-(2-methoxyethyl)piperazin-1-yl]propan-2-ol]
≤ 5 | ≤ 1 | CN1CCN(CCn2ncc3c2CCc2c-3sc3ncnc(Nc4ccc(OCc5cccc(F)c5)c(Cl)c4)c23)CC1 [Example 82, N-{3-chloro-4-[(3-fluorobenzyl)oxy]phenyl}-3-[2-(4-methylpiperazin-1-yl)ethyl]-4,5-dihydro-3H-pyrimido[5′,4′:4,5]thieno[2,3-e]indazol-6-amine]
≤ 50 | ≤ 1 | OCCCn1ncc2c1CCc1c-2sc2ncnc(Nc3ccc(OCc4cccc(F)c4)c(Cl)c3)c12 [Example 268, 3-[6-({3-chloro-4-[(3-fluorobenzyl)oxy]phenyl}amino)-4,5-dihydro-3H-pyrimido[5′,4′:4,5]thieno[2,3-e]indazol-3-yl]propan-1-ol]
≤ 5 | ≤ 1 | CCN(CC)CC(=O)N1CCC(Cn2cc3c(n2)CCc2c-3sc3ncnc(Nc4ccc(OCc5cccc(F)c5)c(Cl)c4)c23)CC1 [Example 242, N-{3-chloro-4-[(3-fluorobenzyl)oxy]phenyl}-2-({1-[(diethylamino)acetyl]piperidin-4-yl}methyl)-4,5-dihydro-2H-pyrimido[5′,4′:4,5]thieno[2,3-e]indazol-6-amine trifluoroacetate]
≤ 50 | ≤ 1 | CNC(=O)Cn1cc2c(n1)CCc1c-2sc2ncnc(Nc3ccc(OCc4cccc(F)c4)c(Cl)c3)c12 [Example 188, 2-[6-({3-chloro-4-[(3-fluorobenzyl)oxy]phenyl}amino)-4,5-dihydro-2H-pyrimido[5′,4′:4,5]thieno[2,3-e]indazol-2-yl]-N-methylacetamide]
≤ 5 | ≤ 5 | Fc1ccc(Nc2ncnc3sc4c(c23)CCc2nn(CCn3ccnc3)cc2-4)cc1Cl [Example 12, N-(3-chloro-4-fluorophenyl)-2-[2-(1H-imidazol-1-yl)ethyl]-4,5-dihydro-2H-pyrimido[5′,4′:4,5]thieno[2,3-e]indazol-6-amine]
≤ 50 | ≤ 1 | O=C(Cn1cc2c(n1)CCc1c-2sc2ncnc(Nc3ccc(OCc4cccc(F)c4)c(Cl)c3)c12)NCCN1CCOCC1 [Example 189, 2-[6-({3-chloro-4-[(3-fluorobenzyl)oxy]phenyl}amino)-4,5-dihydro-2H-pyrimido[5′,4′:4,5]thieno[2,3-e]indazol-2-yl]-N-(2-morpholin-4-ylethyl)acetamide]
≤ 50 | ≤ 1 | Cc1cccc(COc2ccc(Nc3ncnc4sc5c(c34)CCc3nn(CCO)cc3-5)cc2Cl)n1 [Example 115]
≤ 5 | ≤ 1 | Clc1cc(Nc2ncnc3sc4c(c23)CCc2c-4cnn2CCBr)ccc1OCc1ccccn1 [Example 110, 3-(2-bromoethyl)-N-[3-chloro-4-(pyridin-2-ylmethoxy)phenyl]-4,5-dihydro-3H-pyrimido[5′,4′:4,5]thieno[2,3-e]indazol-6-amine]
≤ 50 | ≤ 1 | COCCN1CCN(C(=O)Cn2ncc3c2CCc2c-3sc3ncnc(Nc4ccc(OCc5cccc(F)c5)c(Cl)c4)c23)CC1 [Example 203, N-{3-chloro-4-[(3-fluorobenzyl)oxy]phenyl}-3-{2-[4-(2-methoxyethyl)piperazin-1-yl]-2-oxoethyl}-4,5-dihydro-3H-pyrimido[5′,4′:4,5]thieno[2,3-e]indazol-6-amine]
≤ 5 | ≤ 1 | OCCn1ncc2c1CCc1c-2sc2ncnc(Nc3ccc(OCc4cccc(F)c4)c(Cl)c3)c12 [Example 80, 2-[6-({3-chloro-4-[(3-fluorobenzyl)oxy]phenyl}amino)-4,5-dihydro-3H-pyrimido[5′,4′:4,5]thieno[2,3-e]indazol-3-yl]ethanol]
≤ 5 | ≤ 1 | Fc1cccc(COc2ccc(Nc3ncnc4sc5c(c34)CCc3c-5cnn3CCN3CCCC3)cc2Cl)c1 [Example 87, N-{3-chloro-4-[(3-fluorobenzyl)oxy]phenyl}-3-(2-pyrrolidin-1-ylethyl)-4,5-dihydro-3H-pyrimido[5′,4′:4,5]thieno[2,3-e]indazol-6-amine]
≤ 5 | ≤ 1 | Fc1cccc(Cn2ncc3cc(Nc4ncnc5sc6c(c45)CCc4n[nH]cc4-6)ccc32)c1 [Example 288, N-[1-(3-fluorobenzyl)-1H-indazol-5-yl]-4,5-dihydro-2H-pyrimido[5′,4′:4,5]thieno[2,3-e]indazol-6-amine]
≤ 5 | ≤ 1 | CCN1CCC(n2cc3c(n2)CCc2c-3sc3ncnc(Nc4ccc(OCc5cccc(F)c5)c(Cl)c4)c23)CC1 [Example 230, N-{3-chloro-4-[(3-fluorobenzyl)oxy]phenyl}-2-(1-ethylpiperidin-4-yl)-4,5-dihydro-2H-pyrimido[5′,4′:4,5]thieno[2,3-e]indazol-6-amine]
≤ 50 | ≤ 5 | CCN1CCN(CCn2cc3c(n2)CCc2c-3sc3ncnc(Nc4ccc(OCc5cccc(C)n5)c(Cl)c4)c23)CC1 [Example 118, N-{3-chloro-4-[(6-methylpyridin-2-yl)methoxy]phenyl}-2-[2-(4-ethylpiperazin-1-yl)ethyl]-4,5-dihydro-2H-pyrimido[5′,4′:4,5]thieno[2,3-e]indazol-6-amine]
≤ 50 | ≤ 1 | CCNCCn1cc2c(n1)CCc1c-2sc2ncnc(Nc3ccc(OCc4ccccn4)c(Cl)c3)c12 [Example 108, N-[3-chloro-4-(pyridin-2-ylmethoxy)phenyl]-2-[2-(ethylamino)ethyl]-4,5-dihydro-2H-pyrimido[5′,4′:4,5]thieno[2,3-e]indazol-6-amine]
≤ 50 | ≤ 1 | CN1CCN(C[C@@H](O)Cn2cc3c(n2)CCc2c-3sc3ncnc(Nc4ccc(OCc5cccc(F)c5)c(Cl)c4)c23)CC1 [Example 136, (2R)-1-[6-({3-chloro-4-[(3-fluorobenzyl)oxy]phenyl}amino)-4,5-dihydro-2H-pyrimido[5′,4′:4,5]thieno[2,3-e]indazol-2-yl]-3-(4-methylpiperazin-1-yl)propan-2-ol]
≤ 5 | ≤ 1 | CN1CCN(CCn2cc3c(n2)CCc2c-3sc3ncnc(Nc4ccc(OCc5cccc(Cl)c5)c(Cl)c4)c23)CC1 [Example 333, N-{3-chloro-4-[(3-chlorobenzyl)oxy]phenyl}-2-[2-(4-methylpiperazin-1-yl)ethyl]-4,5-dihydro-2H-pyrimido[5′,4′:4,5]thieno[2,3-e]indazol-6-amine]
≤ 5 | ≤ 1 | Fc1cccc(COc2ccc(Nc3ncnc4sc5c(c34)CCc3nn(C4CCNCC4)cc3-5)cc2Cl)c1 [Example 217, N-{3-chloro-4-[(3-fluorobenzyl)oxy]phenyl}-2-piperidin-4-yl-4,5-dihydro-2H-pyrimido[5′,4′:4,5]thieno[2,3-e]indazol-6-amine]
≤ 50 | ≤ 1 | C=CCn1ncc2c1CCc1c-2sc2ncnc(Nc3ccc(OCc4cccc(F)c4)c(Cl)c3)c12 [Example 129, 3-allyl-N-{3-chloro-4-[(3-fluorobenzyl)oxy]phenyl}-4,5-dihydro-3H-pyrimido[5′,4′:4,5]thieno[2,3-e]indazol-6-amine]
≤ 5 | ≤ 5 | Fc1ccc(Nc2ncnc3sc4c(c23)CCc2nn(CCN3CCN(c5cnccn5)CC3)cc2-4)cc1Cl [Example 22, N-(3-chloro-4-fluorophenyl)-2-[2-(4-pyrazin-2-ylpiperazin-1-yl)ethyl]-4,5-dihydro-2H-pyrimido[5′,4′:4,5]thieno[2,3-e]indazol-6-amine]
≤ 5 | ≤ 1 | COCCN(CCOC)CCn1ncc2c1CCc1c-2sc2ncnc(Nc3ccc4c(cnn4Cc4cccc(F)c4)c3)c12 [Example 292, 3-{2-[bis(2-methoxyethyl)amino]ethyl}-N-[1-(3-fluorobenzyl)-1H-indazol-5-yl]-4,5-dihydro-3H-pyrimido[5′,4′:4,5]thieno[2,3-e]indazol-6-amine]
≤ 5 | ≤ 5 | COCCN(CCn1cc2c(n1)CCc1c-2sc2ncnc(Nc3ccc(F)c(Cl)c3)c12)C(C)C [Example 21, N-(3-chloro-4-fluorophenyl)-2-{2-[isopropyl(2-methoxyethyl)amino]ethyl}-4,5-dihydro-2H-pyrimido[5′,4′:4,5]thieno[2,3-e]indazol-6-amine]
≤ 5 | ≤ 1 | CN(C)[C@H]1CCN(CC(=O)N2CCC(Cn3cc4c(n3)CCc3c-4sc4ncnc(Nc5ccc(OCc6cccc(F)c6)c(Cl)c5)c34)CC2)C1 [Example 235, N-{3-chloro-4-[(3-fluorobenzyl)oxy]phenyl}-2-[(1-{[(3S)-3-(dimethylamino)pyrrolidin-1-yl]acetyl}piperidin-4-yl)methyl]-4,5-dihydro-2H-pyrimido[5′,4′:4,5]thieno[2,3-e]indazol-6-amine]
≤ 5 | ≤ 1 | CS(=O)(=O)OCCn1ncc2c1CCc1c-2sc2ncnc(Nc3ccc4c(cnn4Cc4cccc(F)c4)c3)c12 [Example 290, 2-(6-{[1-(3-fluorobenzyl)-1H-indazol-5-yl]amino}-4,5-dihydro-3H-pyrimido[5′,4′:4,5]thieno[2,3-e]indazol-3-yl)ethyl methanesulfonate]
≤ 50 | ≤ 1 | Fc1cccc(COc2ccc(Nc3ncnc4sc5c(c34)CCc3c-5cnn3CCCN3CCOCC3)cc2Cl)c1 [Example 271, N-{3-chloro-4-[(3-fluorobenzyl)oxy]phenyl}-3-(3-morpholin-4-ylpropyl)-4,5-dihydro-3H-pyrimido[5′,4′:4,5]thieno[2,3-e]indazol-6-amine]
